Consider four molecules from publication PMC5734772, “Characterization of CobB kinetics and inhibition by nicotinamide” (PLoS ONE, 2017).

Data set [1] concerns the target T1, nicotinamidase (PncA) (Escherichia coli, UniProt P21369).
T1 construct: recombinant His6-tagged nicotinamidase
In words: activity of purified PncA after […] min incubation with […] inhibitor at […]°C; activity undetectable. Format: biochemical.

Data set [2] concerns the target T2, CobB (Escherichia coli, UniProt P75960).
T2 construct: recombinant CobB, MBP tag cleaved
T2 sequence (P75960 1-279): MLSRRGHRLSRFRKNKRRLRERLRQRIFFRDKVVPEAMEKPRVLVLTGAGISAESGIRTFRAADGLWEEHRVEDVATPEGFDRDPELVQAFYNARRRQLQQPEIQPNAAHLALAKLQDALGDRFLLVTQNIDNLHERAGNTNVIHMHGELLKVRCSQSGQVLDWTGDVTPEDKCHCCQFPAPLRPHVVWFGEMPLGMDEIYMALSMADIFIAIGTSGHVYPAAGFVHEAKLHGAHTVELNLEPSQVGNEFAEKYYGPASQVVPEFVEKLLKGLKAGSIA
In words: deacetylation of acetylated Acs by purified CobB at varied NAM and NAD+; Dixon and double-reciprocal plots (Ki approximately […]). Format: biochemical.

Substrate in data set [3]: NC(=O)c1cccnc1
In words: purified protein. The data set is classed as biochemical, Escherichia coli.

As a reminder, the IC50 is the concentration needed to halve the response being measured. For orientation: Km means the substrate concentration at which the rate is half of its maximum.

For `O=Cc1cccnc1` [3-pyridinecarboxaldehide], in data set [1], the “activity of purified PncA after 10 min incubation with 1 mM inhibitor at 37°C; a” value was “This result confirms PncA inhibition by 3-pyridinecarbonitrile and 3-pyridinecarboxaldehide in vitro”.

For the molecule `N#Cc1cccnc1` [3-pyridinecarbonitrile], the “activity of purified PncA after 10 min incubation with 1 mM inhibitor at 37°C; a” value in data set [1] was “This result confirms PncA inhibition by 3-pyridinecarbonitrile and 3-pyridinecarboxaldehide in vitro”.

In data set [2], `NC(=O)c1cccnc1` [nicotinamide] had an IC50 of about 52 µM.

B1: nicotinamidase (PncA) (Escherichia coli K-12) (protein)
chain: MPPRALLLVDLQNDFCAGGALAVPEGDSTVDVANRLIDWCQSRGEAVIASQDWHPANHGSFASQHGVEPYTPGQLDGLPQTFWPDHCVQNSEGAQLHPLLHQKAIAAVFHKGENPLVDSYSAFFDNGRRQKTSLDDWLRDHEIDELIVMGLATDYCVKFTVLDALQLGYKVNVITDGCRGVNIQPQDSAHAFMEMSAAGATLYTLADWEETQG
notes: recombinant His6-tagged nicotinamidase
As to B1, the Michaelis constant (Km) in data set [3] stood at 0.175 ± 0.027 mM.
